Measurements as given in the NIST ThermoML archive (doi:10.1016/j.fluid.2004.10.028).

Experiment: wn = mass fraction of the nth substance listed
Conditions: Liquid, Capillary tube (Ostwald / Ubbelohde) method

O=S(=O)([O-])[O-].[Na+].[Na+] [sodium sulfate] + O
viscosity [mPa·s]
Conditions	10000 kPa	20000 kPa	30000 kPa	40000 kPa
421.5 K, w1 = 0.03	0.2013	0.2035	0.2068	0.209
422.51 K, w1 = 0.23	0.4132	0.4195	0.4254	0.43
422.61 K, w1 = 0.015	0.1927	0.1968	0.1999	0.2022
423.8 K, w1 = 0.26	0.4623	0.4688	0.4726	0.4803
424.67 K, w1 = 0.05	0.2079	0.2096	0.213	0.2164
425.6 K, w1 = 0.07	0.2211	0.2267	0.2293	0.23
444.81 K, w1 = 0.2	0.3083	0.3129	0.3175	0.3219
446.24 K, w1 = 0.05	0.1796	0.182	0.1853	0.1879
447 K, w1 = 0.07	0.1913	0.1946	0.1975	0.1998
447.2 K, w1 = 0.1	0.2125	0.2163	0.2189	0.2219
447.6 K, w1 = 0.015	0.1633	0.1684	0.17	0.1724
447.6 K, w1 = 0.15	0.2493	0.2551	0.2575	0.2603
447.6 K, w1 = 0.26	0.3901	0.3981	0.401	0.4047
447.81 K, w1 = 0.03	0.1686	0.1705	0.1734	0.1761
447.9 K, w1 = 0.23	0.3449	0.3498	0.3568	0.3609
470.16 K, w1 = 0.05	0.1564	0.1598	0.1629	0.1647
470.7 K, w1 = 0.015	0.1432	0.1468	0.1499	0.1508
471.31 K, w1 = 0.1	0.1847	0.1878	0.1904	0.1941
472 K, w1 = 0.23	0.2966	0.3024	0.3086	0.312
472.2 K, w1 = 0.07	0.1656	0.1689	0.1706	0.1739
472.3 K, w1 = 0.2	0.2608	0.2661	0.2699	0.2739
473.7 K, w1 = 0.03	0.1456	0.1486	0.1514	0.153
473.9 K, w1 = 0.26	0.3308	0.3354	0.3413	0.3476
473.93 K, w1 = 0.15	0.2133	0.2169	0.2199	0.224
496.34 K, w1 = 0.23	0.262	0.2695	0.2734	0.2776
497.1 K, w1 = 0.03	0.1296	0.1312	0.136	0.1375
497.19 K, w1 = 0.2	0.2292	0.2335	0.2387	0.2425
497.8 K, w1 = 0.15	0.1892	0.1945	0.1978	0.2001
498.22 K, w1 = 0.1	0.1618	0.1641	0.1678	0.1711
498.3 K, w1 = 0.015	0.1248	0.1286	0.1307	0.1325
498.7 K, w1 = 0.07	0.1451	0.1489	0.1506	0.1533
498.7 K, w1 = 0.26	0.2923	0.2976	0.3018	0.309
499.3 K, w1 = 0.05	0.1352	0.1363	0.1392	0.143
520.5 K, w1 = 0.26	0.2636	0.2691	0.2746	0.2813
520.51 K, w1 = 0.23	0.2338	0.2387	0.2415	0.249
520.64 K, w1 = 0.015	0.1128	0.1165	0.1191	0.1209
522.4 K, w1 = 0.15	0.1686	0.1709	0.1748	0.179
523.1 K, w1 = 0.07	0.1298	0.1324	0.1367	0.1385
523.3 K, w1 = 0.03	0.115	0.1169	0.1196	0.1219
523.8 K, w1 = 0.2	0.2021	0.2076	0.2105	0.216
524.7 K, w1 = 0.05	0.1204	0.1231	0.1267	0.1286
525.4 K, w1 = 0.1	0.143	0.1469	0.1493	0.1524
545.3 K, w1 = 0.05	0.1097	0.112	0.1143	0.1177
545.4 K, w1 = 0.2	0.184	0.1879	0.1923	0.1989
546.2 K, w1 = 0.07	0.1171	0.1197	0.1224	0.1267
547.7 K, w1 = 0.15	0.151	0.1548	0.1589	0.1634
547.9 K, w1 = 0.015	0.1	0.1025	0.1068	0.1089
547.9 K, w1 = 0.1	0.1296	0.1329	0.136	0.1399
548.7 K, w1 = 0.23	0.2061	0.2106	0.2186	0.223
549.9 K, w1 = 0.03	0.1023	0.1065	0.1086	0.1109
570.5 K, w1 = 0.15	0.1354	0.1399	0.1463	0.1496
572.62 K, w1 = 0.03	0.092	0.0967	0.0992	0.102
572.96 K, w1 = 0.05	0.0965	0.0998	0.1029	0.1066
573.2 K, w1 = 0.1	0.1143	0.1178	0.1204	0.1266
573.5 K, w1 = 0.07	0.1031	0.1068	0.1092	0.1143
